Here are results for 26 molecules from US10519162B2, “6,7-dihydropyrazolo[1,5-α]pyrazin-4(5H)-one compounds and their use as negative allosteric modulators of mGluR2 receptors” (Janssen Pharmaceutica NV, priority 2014, dated 2019).

The melting point is the temperature of the solid-liquid transition. In general, Emax refers to the maximal effect, on the per cent scale that the assay sets. The ED50 is the dose that gives a 50% effect, or the effect in half of the subjects.

Data set [1] has as its target T1, human mGlu2 receptor (Homo sapiens, UniProt Q14416).
T1 construct: expressed in transfected cells; host or cells: CHO cells
The experiment in a line: [35S]GTPγS binding assay (mGluR2 negative allosteric modulation, glutamate ~EC80 60 μM). It counts as biochemical. Conditions: for Emax: read-out: GTPγS-hmGluR2 anGT Emax; for IC50: membranes from CHO cells transfected with human mGlu2 receptor, glutamate ~EC80 (60 μM), pIC50 = −log IC50 (M), read-out: GTPγS-hmGluR2 anGT pIC50 (converted). As to the method:
1) [^35S]GTPγS Binding Assay
[^35S]GTPγS Binding Assay
Total reaction volume was 200 μl. […] Membrane-bound radioactivity was counted in a Topcount.

For data set [2], the system named is rats. The experiment in a line: Reversal of the effect of the mGluR2 PAM JNJ-42153605-induced inhibition of scopolamine-induced hyperlocomotion (SCOP JNJ-42153605). It counts as in vivo, rat. Particulars: Rattus norvegicus; PO (oral route); rats; reversal criterion total distance >1500 cm. As to the method:
2) Reversal of the Effect of the mGluR2 PAM JNJ-42153605-Induced Inhibition of Scopolamine-Induced Hyperlocomotion Apparatus
Motor activity was measured in microprocessor-based motor activity arenas (closed gray PVC cylinders with a height of 39 cm and a diameter of 31 cm). Each arena was placed on an infrared LED (8×8 LEDs) lit box (white PVC squared box; 40×40 cm^2; height 12.5 cm. An infrared-sensitive tube camera and a white light source were mounted to the ceiling above the observation chamber to track the animal. The total distance traveled (cm) was recorded and analyzed using the Noldus Ethovision XT Video Tracking System (Version 7.0.418; Noldus, Wageningen, The Netherlands). The intensity of the light within the activity cages (measured in the centre at the level of the floor) ranged between 4 and 8 LUX.
The rats were pretreated with test compound or vehicle at 60 min before the start of the activity recordings and placed into individual cages. The rats were challenged with JNJ-42153605 (3-(cyclopropylmethyl)-7-(4-phenylpiperidin-1-yl)-8-(trifluoromethyl)[1,2,4]triazolo[4,3-a]pyridine; WO2010/130424; Cid et al. J. Med. Chem. 2012, 55, 8770-8789) (20 mg/kg, i.v.) 30 min before the start of the activity recording combined with scopolamine (0.16 mg/kg, i.v.) just before the start of the activity measurements. Immediately after the injection of scopolamine, the rats were placed into the activity monitors and total distance travelled over the first 30 min was measured.
Solvent-Pretreated Control Rats.
Animals receiving the combination of JNJ-42153605 and scopolamine (n=433) almost always travelled a distance of less than 1500 cm (<1500 cm) (only 2.5% of the control rats travelled a distance of more than 1500 cm (>1500 cm)). On the other hand, animals challenged with scopolamine alone (n=215) always travelled a total distance of more than 1500 cm (>1500 cm) and almost always (in 95.8% of the rats) a distance of more than 4400 cm (>4400 cm). […] For reversal of the inhibitory effect of JNJ-42153605 on the scopolamine-induced hyperlocomotion, the following all-or-none criteria were adopted: (1) reversal: total distance >1500 cm.

[3] abbreviates: maximal % inhibition relative to the control glutamate response (EC80 glutamate).

T1 sequence (Q14416 19-872): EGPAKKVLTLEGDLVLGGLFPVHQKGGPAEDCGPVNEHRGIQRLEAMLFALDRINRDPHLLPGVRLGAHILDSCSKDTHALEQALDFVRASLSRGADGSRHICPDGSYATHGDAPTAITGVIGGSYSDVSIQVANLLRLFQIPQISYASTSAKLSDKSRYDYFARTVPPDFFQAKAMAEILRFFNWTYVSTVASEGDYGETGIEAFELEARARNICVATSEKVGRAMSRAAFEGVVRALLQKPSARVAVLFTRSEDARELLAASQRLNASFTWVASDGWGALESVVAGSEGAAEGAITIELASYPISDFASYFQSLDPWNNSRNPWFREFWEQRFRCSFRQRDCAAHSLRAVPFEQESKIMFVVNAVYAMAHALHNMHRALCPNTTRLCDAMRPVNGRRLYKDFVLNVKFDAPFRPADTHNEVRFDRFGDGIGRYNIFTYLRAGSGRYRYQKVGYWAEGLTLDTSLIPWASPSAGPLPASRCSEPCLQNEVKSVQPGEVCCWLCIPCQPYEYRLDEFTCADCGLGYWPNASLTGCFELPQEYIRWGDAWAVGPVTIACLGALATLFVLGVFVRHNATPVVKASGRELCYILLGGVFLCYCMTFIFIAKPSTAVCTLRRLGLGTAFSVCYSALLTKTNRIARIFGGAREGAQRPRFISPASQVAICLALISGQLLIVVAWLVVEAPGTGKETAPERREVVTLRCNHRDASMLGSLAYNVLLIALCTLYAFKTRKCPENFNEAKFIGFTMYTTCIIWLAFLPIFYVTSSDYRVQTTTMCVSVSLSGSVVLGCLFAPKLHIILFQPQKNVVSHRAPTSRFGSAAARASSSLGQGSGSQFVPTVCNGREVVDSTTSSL

`Cc1cc(C(=O)Nc2cnn3c2C(=O)N(c2ccc(C(F)(F)F)cc2)C[C@@H]3C)ccn1` [Co. No. 29, 2-Methyl-N-[(7S)-7-methyl-4-oxo-5-[4-(trifluoromethyl)phenyl]-6,7-dihydropyrazolo[1,5-a]pyrazin-3-yl]pyridine-4-carboxamide] displayed a melting point of 145.1 °C. Moreover, the Emax in data set [1] (setting [3]) was 100%. In data set [1], the IC50 is 6.92e-09 M. Moreover, the ED50 in data set [2] is over 2.5 mg/kg.
For `C[C@H]1CN(c2ccc(C(F)(F)F)cc2)C(=O)c2c(NC(=O)c3cccc(F)c3)cnn21` [Co. No. 14], in that order: 161.84 °C, 102%, 2.75e-09 M and over 2.5 mg/kg.
For `Cc1cc(C(=O)Nc2cnn3c2C(=O)N(c2ccc(C(F)(F)F)c(Cl)c2)C[C@@H]3C)nc(N)n1` [Co. No. 181], in that order: 258.12 °C, 101%, 5.75e-09 M and over 0.63 mg/kg.
On the same counts, the results for `Cc1ccncc1C(=O)Nc1cnn2c1C(=O)N(c1ccc(C(F)(F)F)c(C)c1)C[C@@H]2C` [Co. No. 119] are 200.3 °C, 107%, 8.32e-09 M and over 0.63 mg/kg.
Molecule `COc1cccc(C(=O)Nc2cnn3c2C(=O)N(c2ccc(C(F)(F)F)cc2)C[C@@H]3C)n1` [Co. No. 20] showed a melting point of 190 °C. Moreover, in data set [1] (setting [3]), the “GTPγS-hmGluR2 anGT Emax” value is listed as 103%. For the same molecule, in data set [1], the IC50 was 4.57e-09 M. Besides, in data set [2], the ED50 was over 2.5 mg/kg.
Take `Cc1cccc(C(=O)Nc2cnn3c2C(=O)N(c2ccc(C(F)(F)F)cc2)C[C@@H]3C)n1` [Co. No. 34]: the melting point was 214.97 °C. Besides, the Emax in data set [1] (setting [3]) came to 116%. In addition, the IC50 in data set [1] was 8.32e-09 M. Also, the ED50 in data set [2] is over 2.5 mg/kg.
Molecule `COc1cncc(C(=O)Nc2cnn3c2C(=O)N(c2ccc(Cl)c(Cl)c2)C[C@@H]3C)c1` [Co. No. 149] came in with a melting point of 184.46 °C. For the same molecule, the Emax in data set [1] (setting [3]) stood at 107%. Also, in data set [1], the IC50 was 1.66e-09 M. The ED50 in data set [2] is over 0.63 mg/kg.
For `Cc1cc(N2C[C@H](C)n3ncc(NC(=O)c4ccccn4)c3C2=O)ccc1C(F)(F)F` [Co. No. 110], in that order: 217.95 °C, 107%, 2.34e-09 M and over 0.63 mg/kg.
Consider `C[C@H]1CN(c2ccc(C(F)(F)F)c(Cl)c2)C(=O)c2c(NC(=O)c3ccccc3)cnn21` [Co. No. 2], for which the melting point came to 161.54 °C. Besides, the Emax in data set [1] (setting [3]) came to 105%. In addition, in data set [1], the IC50 was 1.32e-09 M. Besides, the ED50 in data set [2] was over 2.5 mg/kg.
On to `COc1cncc(C(=O)Nc2cnn3c2C(=O)N(c2ccc(C(F)(F)F)c(C)c2)C[C@@H]3C)c1` [Co. No. 151], for which the melting point was found to be 135.98 °C. In addition, the Emax in data set [1] (setting [3]) amounted to 106%. Besides, the IC50 in data set [1] is 3.16e-09 M. Also, in data set [2], the ED50 is over 0.63 mg/kg.
With `COc1cncc(C(=O)Nc2cnn3c2C(=O)N(c2ccc(C(F)(F)F)cc2)C[C@@H]3C)c1` [Co. No. 32], the melting point was 174.59 °C. Further, the Emax in data set [1] (setting [3]) was determined as 112%. For the same molecule, the IC50 in data set [1] is 7.41e-09 M. Also, the ED50 in data set [2] is 1.26 mg/kg.
On the same counts, the results for `COc1cc(N2C[C@H](C)n3ncc(NC(=O)c4cccnc4)c3C2=O)ccc1C(F)(F)F` [Co. No. 147] are 186.11 °C, 106%, 1.07e-08 M and over 0.63 mg/kg.
`C[C@H]1CN(c2ccc(C(F)F)c(Cl)c2)C(=O)c2c(NC(=O)c3ccc(N)nc3)cnn21` [Co. No. 6] registered a melting point of 177 °C. Besides, in data set [1] (setting [3]), the Emax turned out to be 114%. The ED50 in data set [2] is over 2.5 mg/kg.
Molecule `COc1cc(N2C[C@H](C)n3ncc(NC(=O)c4cnccn4)c3C2=O)ccc1C(F)(F)F` [Co. No. 118] gave a melting point of 191.55 °C. Also, the Emax in data set [1] (setting [3]) is 108%. Moreover, the IC50 in data set [1] is 4.27e-09 M. In data set [2], the ED50 was over 0.63 mg/kg.
For `Cc1cncc(C(=O)Nc2cnn3c2C(=O)N(c2ccc(C(F)(F)F)c(F)c2)C[C@@H]3C)c1` [Co. No. 128], in that order: 163.67 °C, 103%, 6.92e-09 M and over 0.63 mg/kg.
For `Cc1cc(C(=O)Nc2cnn3c2C(=O)N(c2ccc(Cl)cc2)C[C@@H]3C)cc(N)n1` [Co. No. 203], in that order: 223.01 °C, 105%, 1.12e-08 M and over 0.63 mg/kg.
For `C[C@H]1CN(c2ccc(C(F)(F)F)c(CF)c2)C(=O)c2c(NC(=O)c3cccnc3N)cnn21` [Co. No. 210], in that order: 176.26 °C, 106%, 2.09e-09 M and 0.32 mg/kg.
`Cc1cncc(C(=O)Nc2cnn3c2C(=O)N(c2ccc(C(F)(F)F)c(C)c2)C[C@@H]3C)c1` [Co. No. 115] came in with a melting point of 151.53 °C. The Emax in data set [1] (setting [3]) was 107%. Also, in data set [1], the IC50 was 3.39e-09 M. For the same molecule, in data set [2], the ED50 was over 0.63 mg/kg.
On to `Cc1cnc(N)c(C(=O)Nc2cnn3c2C(=O)N(c2ccc(Cl)c(Cl)c2)C[C@@H]3C)c1` [Co. No. 199], for which the melting point was 220.49 °C. Further, in data set [1] (setting [3]), the Emax was found to be 109%. For the same molecule, in data set [1], the IC50 was 9.77e-10 M. Moreover, the ED50 in data set [2] was determined as 0.08 mg/kg.
For `Cc1ccnc(N)c1C(=O)Nc1cnn2c1C(=O)N(c1ccc(C(F)(F)F)cc1)C[C@@H]2C` (racemic) [Co. No. 192], in that order: 177.39 °C, 110%, 2.69e-08 M and over 0.63 mg/kg.
For `CNc1ncccc1C(=O)Nc1cnn2c1C(=O)N(c1ccc(C(F)(F)F)cc1)C[C@@H]2C` [Co. No. 194], in that order: 161.97 °C, 113%, 1.29e-09 M and 0.318 mg/kg.
For `COc1cncc(C(=O)Nc2cnn3c2C(=O)N(c2ccc(C(F)(F)F)c(F)c2)C[C@@H]3C)c1` [Co. No. 153], in that order: 143.17 °C, 106%, 1.35e-08 M and over 0.63 mg/kg.
On to `COc1cncc(C(=O)Nc2cnn3c2C(=O)N(c2ccc(C(F)(F)F)c(OC)c2)C[C@@H]3C)c1` [Co. No. 152], for which the melting point came to 115.19 °C. For the same molecule, in data set [1] (setting [3]), the Emax worked out at 106%. In addition, the IC50 in data set [1] was 9.77e-09 M. Further, the ED50 in data set [2] is over 0.63 mg/kg.
On the same counts, the results for `C[C@H]1CN(c2ccc(C(F)(F)F)cc2)C(=O)c2c(NC(=O)c3cccc(S(N)(=O)=O)c3)cnn21` [Co. No. 177] are 280.43 °C, 109%, 1.66e-09 M and over 0.63 mg/kg.
For `Cc1cnc(N)c(C(=O)Nc2cnn3c2C(=O)N(c2ccc(S(F)(F)(F)(F)F)cc2)C[C@@H]3C)c1` [Co. No. 200], in that order: 197.51 °C, 111%, 1.48e-09 M and over 0.63 mg/kg.
For `Cc1cc(N2C[C@H](C)n3ncc(NC(=O)c4cnccn4)c3C2=O)ccc1C(F)(F)F` [Co. No. 114], in that order: 225.49 °C, 106%, 2.51e-09 M and over 0.63 mg/kg.
